# From US20220401459A1, “NEW APPLICATION OF CHEMOKINE RECEPTOR CCR6 INHIBITOR IN PREVENTING RECURRENCE OF PSORIASIS” (RUIJIN HOSPITAL, SHANGHAI JIAOTONG UNIVERSITY SCHOOL OF …, priority 2019, published 2022)
# “Also recorded” adds a separate entry of the source.
# Columns and labels:
# [1] = test system: imiquimod (IMQ)-induced mouse psoriasis model; experiment: Imiquimod (IMQ)-induced mouse psoriasis model: GC treatment, withdrawal, re-induced recurrence; assay type: in vivo; conditions: for proportion of γδT17 (IL-17-secreting) cells in lymph nodes: after drug administration was stopped (2 weeks); for recurrence of psoriasis: psoriasis re-induced with IMQ after withdrawal
# Text: (§1) In this example, an animal model to simulate clinical GC treatment for psoriasis was established (FIG. 2a). An imiquimod (IMQ)-induced mouse psoriasis model was utilized to simulate the whole clinical process of topical glucocorticoid treatment in patients with psoriasis: administering of drug—stop administering—recurrence of disease.
# (§2) All mice were smeared with IMQ for three weeks. Among them, from the 6th day, GC or petrolatum (Vas) was applied to the skin of the mice, and all treatments were stopped on the 21st day. Mice entered a 2-week drug withdrawal period, after which IMQ was applied again for 7 consecutive days to induce psoriasis recurrence.
# In order to simulate the clinical withdrawal period, all mice in the experimental group and the control group were rested for 2 weeks without treatment.
# In this example, IMQ was applied to the mice in the experimental group and the control group again to simulate the recurrence of psoriasis after clinical withdrawal.
# [2] = test system: imiquimod (IMQ)-induced mouse psoriasis model; experiment: as above; assay type: in vivo; conditions: imiquimod replaced by mannan for inducing recurrence
# [3] = test system: patients with psoriasis vulgaris; experiment: Psoriasis vulgaris patients, topical GC for 2 weeks, then stopped until relapse (flow cytometry, RNA-seq); assay type: in vivo, human
# Method: In this example, patients with psoriasis vulgaris were recruited and glucocorticoids (GC) were topically (externally) administered for 2 weeks of treatment. Thereafter, the administration were stopped until the disease relapsed, and further research on the mechanism of psoriasis recurrence was carried out.
# Transcriptome sequencing (RNA-seq) was performed on the skin lesions of these patients before GC treatment, after GC treatment, and after disease recurrence.
# In this example, in psoriasis patients receiving GC treatment, the changes in the proportion of CD3+ T cells and T17 cells in the skin and peripheral blood before treatment, after treatment and during recurrence were detected.
# [4] = test system: wild-type mice (WT), CCR6−/−, and CCR2−/− mice; experiment: GC treatment and IMQ re-challenge in WT, CCR6−/− and CCR2−/− mice; assay type: in vivo, mouse
# Text: as §1, §2
# […] CCR6 and CCR2 are known to mediate the migration of γδT17 cells in the occurrence of skin inflammation. In this example, the above-mentioned mechanism was studied in wild-type mice (WT), CCR6^−/−, and CCR2^−/− mice.
# [5] = 2 weeks after withdrawal, vs control group
# [6] = TCRd−/− mice, IMQ re-challenge, GC vs Vas
# [7] = after treatment and during recurrence
# [8] = before, after treatment and during recurrence
# [9] = CCR6−/− mice, after GC treatment
# [10] = CCR6−/− mice, re-challenge with IMQ
smiles,measurement,setting,value
CCCCCCCCc1ccc(CCC(N)(CO)CO)cc1 [FTY720],migration of γδT17 cells from the draining lymph nodes,"[1]; GC group, recurrence",prevented
same,rapid recurrence of psoriasis,[1]; mice in the GC group given FTY720,did not appear rapid recurrence
C[C@@H]1C[C@H]2[C@@H]3C[C@H](F)C4=CC(=O)C(Cl)=C[C@]4(C)[C@@]3(F)[C@@H](O)C[C@]2(C)[C@@]1(O)C(=O)CO [halometasone],"proportions of γδT, Vγ4, Vγ4Vδ4 cells in draining and distant lymph nodes",[1]; 2 weeks after withdrawal,remained unchanged or slightly increased
same,neutrophils infiltrated in the skin,"[1]; 2 weeks after withdrawal, vs Vas control group",more neutrophils were infiltrated
same,proportion of γδT17 in the skin,[1]; [5],also lower
same,"proportions of CD3, γδT, Vγ4Vδ4 in the skin",[1]; [5],still lower
same,levels of IL-17 secreted by CD3 and γδT cells in the skin,"[1]; IMQ re-challenge, GC vs Vas",not significantly different
same,proportions of CD3 and γδT cells in the skin,"[1]; IMQ re-challenge, GC vs Vas",not significantly different
same,"proportions of IL-17 secreted by γδT, Vγ4, Vγ4Vδ4 cells in distant lymph nodes","[1]; IMQ re-challenge, GC vs Vas",significantly lower
same,proportions of Vγ4T17 and Vγ4Vδ4T17 cells in the skin,"[1]; IMQ re-challenge, GC vs Vas",slightly decreased
same,γδT17 in skin draining lymph nodes,"[1]; IMQ re-challenge, GC vs Vas",no difference
same,infiltrated neutrophils in the skin,"[1]; IMQ re-challenge, vs Vas control group",exceeded
same,epidermal thickening fold,"[1]; IMQ re-challenge, vs Vas group",also higher
same,neutrophils infiltrated in the skin,"[1]; TCRd−/− mice, 2 weeks after withdrawal, GC vs Vas",no difference
same,ear / epidermal thickening,[1]; [6],no difference
same,infiltrated neutrophils in the skin,[1]; [6],opposite results
same,neutrophil infiltration in the skin,"[1]; TCRd−/− mice, after treatment, experimental vs control group",no statistical difference
same,proportion of γδT17 cells in lymph nodes after stimulation,[1]; after drug administration was stopped,still significantly increased
same,proportion of γδT17 (IL-17-secreting) cells in lymph nodes,[1],still significantly increased
same,proportion of γδT17 (IL-17-secreting) cells in lymph nodes,[1]; listed as GC,significantly increased
same,IL-17 secretion by Vγ4 cells and Vγ4Vδ4 cells in draining lymph nodes,[1]; after treatment,secreted more IL-17
same,"dermal γδT cells, especially Vγ4Vδ4 cells, in the skin",[1]; after treatment,significantly reduced
same,proportion of CD3+ T cells in the skin,[1]; after treatment,significantly reduced
same,"proportion of IL-17 secretion of γδT, Vγ4, Vγ4Vδ4 cells in distal lymph nodes",[1]; after treatment,also higher
same,proportion of Vγ4 cells in skin-draining lymph nodes,[1]; after treatment,increased
same,proportion of γδT17 cells in draining and distal lymph nodes,[1]; after treatment,significantly increased
same,proportion of γδT cells in skin-draining lymph nodes,[1]; after treatment,decreased
same,"proportions of IL1R expression in γδT, Vγ4, Vγ4Vδ4 cells in the skin",[1]; after treatment,all increased
same,"proportions of γδT, Vγ4, Vγ4Vδ4 T cells in distal lymph nodes",[1]; after treatment,higher
same,neutrophil infiltration in the skin,"[1]; after treatment, immunofluorescence and flow staining",reduced
same,"proportion of IL-17 secretion of γδT, Vγ4, Vγ4Vδ4 cells in distal lymph nodes","[1]; after treatment, listed as GC",all increased
same,proportion of γδT17 cells in draining and distal lymph nodes,"[1]; after treatment, listed as GC",increased in draining and distant lymph nodes
same,"proportions of CD3, γδ, Vγ4, Vγ4Vδ4 that secreted IL-17 (γδT17) in the skin","[1]; after treatment, listed as GC",reduced; also recorded: decreased in the skin
same,"proportions of γδT, Vγ4, Vγ4Vδ4 T cells in distal lymph nodes","[1]; after treatment, listed as GC",all increased
same,ear thickening speed,"[1]; after using IMQ again for 3 days, vs control group",faster
same,ear thickness,"[1]; day 21, vs control group (Vas)",significantly thinner
same,proportion of γδT17 cells in draining and distal lymph nodes,[1]; psoriasis re-induced with IMQ,significant decrease
same,recurrence of psoriasis,[1],relapsed rapidly
same,recurrence of psoriasis,[1]; listed as GC,more severe disease recurrence
same,proportion of Vγ4 and Vγ4Vδ4 T cells in the skin,"[1]; psoriasis re-induced with IMQ, GC group vs Vas",higher
same,"proportions of γδT, Vγ4, Vγ4Vδ4 cells in lymph nodes","[1]; psoriasis re-induced with IMQ, GC group vs Vas, listed as GC",varied slightly or did not change; also recorded: mild or no change
same,proportion of γδT17 cells in draining and distal lymph nodes,"[1]; psoriasis re-induced with IMQ, listed as GC",indistinguishable or even lower
same,symptoms of skin psoriasis,[1]; topical treatment of ear skin inflammation,significantly relieved
same,rapid disease recurrence,[2],no longer had rapid disease recurrence
same,"expression of chemokines CCL20, CCL5, CCL2, CXCL10 in skin lesions (RNA-seq)",[3]; [7],decreased after treatment and increased during recurrence
same,"expression of psoriasis-related genes (IL-17, IL-23) in skin lesions",[3]; [7],"decreased after treatment, but increased during recurrence"
same,"expression of psoriasis-related genes (IL-17, IL-23) in skin lesions","[3]; after treatment and during recurrence, listed as GC",down-regulated
same,proportion of IL-17-producing T cells (T17 cells) in skin lesions,[3]; [8],decreased after treatment and increased during recurrence
same,proportion of IL-17-producing cells (T17 cells) in peripheral blood,[3]; [8],increased after treatment and decreased during recurrence
same,proportion of IL-17-producing T cells (T17 cells) in skin lesions,"[3]; before, after treatment and during recurrence, listed as GC",decreased
same,control of psoriasis,[3]; topical treatment,quickly and effectively control psoriasis
same,proportion of γδT17 cells in lymph nodes,"[4]; CCR6 KO mice, recurrence after GC treatment",did not show a decrease
same,redistribution of γδT17 cells in vivo,[4]; CCR6 knockout mice,did not affect
same,ear thickness vs corresponding control,[4]; [9],no significant difference
same,"increased levels of IL-17 secreted by γδT, Vγ4, Vγ4Vδ4 cells in draining and distant sites",[4]; [9],not observed
same,proportion of γδT cells in lymph nodes,"[4]; CCR6−/− mice, after treatment",did not show an increase
same,disease recurrence,[4]; [10],significantly suppressed
same,"levels of IL-17 secreted by dermal γδT, Vγ4, Vγ4Vδ4 cells vs corresponding control group",[4]; [10],significantly lower
same,"proportions of γδT17, Vγ4T17, Vγ4Vδ4T17 cells in draining and distant lymph nodes (decrease)",[4]; [10],not
same,disease recurrence,"[4]; WT and CCR2 mice, re-challenge with IMQ",faster disease recurrence
same,ear thickness vs corresponding controls,"[4]; WT and CCR2−/− mice, after GC treatment",significantly lower
same,"levels of IL-17 secreted by CD3, γδT, Vγ4, Vγ4Vδ4 cells in the skin vs corresponding control group","[4]; WT and CCR2−/− mice, re-challenge with IMQ",no significant difference
same,"proportions of γδT17, Vγ4T17, Vγ4Vδ4T17 cells in draining and distant lymph nodes","[4]; WT mice, re-challenge with IMQ",decreased
same,ear thickness,"[4]; WT, CCR6−/− and CCR2−/− mice (three strains), after GC treatment",reduced
same,"levels of IL-17 secreted by CD3, γδT, Vγ4, Vγ4Vδ4 cells in the skin","[4]; three strains of mice, after GC treatment",all reduced
